What all share (type): cell-based
The subject of data set [1] is HIV1 modified pNL4-3.Luc.R-E-virus. The experiment in a line: Western assay of HIV p24 gag expression in infected CEM T cells. The conditions noted are these: Western assay with HIV p24 antibody, FIG. 4. The text has this:
The ability of a compound in accordance with General Formula 1, including derivatives in accordance with General Formulae 1-1 to 1-20, or pharmaceutically acceptable salts thereof, to inhibit the expression of at least a portion of a virus genome containing an IRES sequence can be also be determined by assessing the expression of a native protein within a viral genome. In some embodiments, the ability of a compound or pharmaceutically acceptable salt to inhibit expression of native protein can be assessed by using antibodies for a protein normally expressed from the virus genome. For example, HIV p24 gag is a protein normally expressed by HIV1 that can be detected using the HIVI p24 antibody. Accordingly, compounds in accordance with General Formula 1, including derivatives in accordance with any of General Formulae 1-1 to 1-20, or pharmaceutically acceptable salts thereof, can be assessed for the ability to inhibit proliferation of the HIV1 by infecting CEM T cells with the HIV1 modified pNL4-3.Luc.R-E-virus and assessing the expression of HIV p24 gag with the HIV p24 antibody. […]
A compound or salt may be wrongly classified as capable of inhibiting expression of at least a portion of a virus genome containing an IRES sequence due to unequal loading of proteins within an assay. […] In some embodiments, equivalent protein loading can be assessed by ponceau staining. […]

The test system is the same in data set [2]. As to the kind of experiment: Luciferase luminescence of CEM T cells infected with HIV1 modified pNL4-3.Luc.R-E-virus. Set-up: dose or concentration left out as unconfirmed. The conditions noted are these: CEM T cells pretreated before infection; vs untreated and DMSO; FIG. 2. An excerpt: The expression of the protein assessed may be native, i.e. naturally occurring within the genome of the virus to be treated. In combination or the alternative, expression of a protein introduced to the viral genome may be assessed. Assessing the expression of an introduced protein may enable an assessment of viral proliferation by means not normally permitted by the native viral genome. For example, proliferation of the HIV1 virus can be assessed using luminescence with the HIV1 modified pNL4-3.Luc.R-E-virus. […] Accordingly, proliferation of the HIV1 modified pNL4-3.Luc.R-E-virus will entail production of the luciferase protein. […]
Accordingly, compounds in accordance with General Formula 1, including derivatives in accordance with General Formulae 1-1 to 1-20, or pharmaceutically acceptable salts thereof, can be assessed for the ability to inhibit proliferation of the HIV1 by infecting CEM T cells with the HIV1 modified pNL4-3.Luc.R-E-virus. […]
Prior to infection with the HIV1 modified pNL4-3.Luc.R-E-virus, the CEM T cells were pretreated with either SD-29 or DMSO ([…]) or left untreated. […] To assess luminescence, 100 μL of the cell suspension and […] of reconstituted luciferase buffer (Luclite Kit, Perkin Elmer) were added to wells and allowed to incubate for 10 minutes. […]

Data set [3] relates to CEM T cells. The experiment in a line: Percent of viable CEM T cells after infection. The conditions noted are these: CEM T cells after infection with HIV1 modified pNL4-3.Luc.R-E-virus; FIG. 3. The text has this:
It is possible that the diminished expression of a protein within the genome of a virus containing an IRES sequence may have been brought about by the compound inhibiting the ability infected cells to survive. If the compound or salt diminishes viability or is otherwise toxic to the cell, then diminished expression of a protein within the genome of a virus containing an IRES sequence may be the result of infected cells dying before sufficient levels of the protein can be expressed. Determining if diminished expression of a protein is the result of cell death or other toxic effects of the compound or salt may be accomplished by assessing the viability of cells after administration of the compound or salt. Accordingly, in some embodiments of assessing the ability of a compound in accordance with General Formula 1, including derivatives in accordance with any of General Formulae 1-1 to 1-20, or pharmaceutically acceptable salts thereof, to inhibit the expression of at least a portion of a virus genome containing an IRES sequence, the compound or salt may be assessed for its ability to preserve viability of cells following administration. […]

On to `Nn1c(S)nnc1-c1ccc(F)cc1` [SD-29], for which, in data set [1], the “expression of HIV p24 gag” value is listed as “does inhibit expression”. Moreover, the “luminescence / proliferation of the HIV1 modified pNL4-3.Luc.R-E-virus” value in data set [2] is listed as “significantly reduced proliferation”. The “viability of the infected cells” value in data set [3] was “did not decrease viability”.

For the origin of these results see patent US11576901B2, “Methods for treating viral infection” (HOWARD UNIVERSITY, priority 2016, dated 2023).
